In paper PMC11800497, “Antifungal activity and biocompatibility assessment with molecular docking and dynamic simulations of new pyrazole derivatives” (BMC Biotechnology, 2025):
In brackets after ≈: the same amount, converted by molar mass. Entries after “also recorded” stand apart in the source; their conditions may differ. Marks after values point to notes of the source that are not given here.

Assays:
A. niger = system: A. niger; parameters: method as in PMID 31926784; conditions: cited from earlier work
A. flavus = system: A. flavus; parameters: method as in PMID 31926784; conditions: cited from earlier work
R. oryzae ATCC 96382 = assay: Well-diffusion antifungal activity; format: cell-based, Rhizopus oryzae; conditions: Rhizopus arrhizus, ATCC96382; 1000 µg/ml, 72 h, 28 °C; read-out: IZD
Description: (§1) This study investigated strains of four distinct fungal pathogens: Aspergillus flavus ATCC 9643, A. niger ATCC 11414, Rhizopus oryzae ATCC 96382, and Penicillium chrysogenum ATCC 10106. Every strain was acquired from the Dep. of Micro. Fac. Agric., […] Uni., in Egypt. Initially kept and preserved in malt agar medium at 4 °C, the pathogens were then grown overnight at 28 °C in malt broth medium to evaluate the antifungal activity. Fungal pathogen standard inoculum was prepared by following the procedure described by. To assess the antifungal activity, the pathogens were first maintained and stored at 4 °C in malt agar medium. They were then cultured in malt broth medium for a whole night at 28 °C. According to [22], the well-diffusion technique was used to test the antifungal activity. This included using a 9.0 mm cork borer that had been sterilized to create wells in the malt agar layer. […] After adding 1000 μg/ml of control pyrazole compounds and the standard antifungal (Fluconazole 1000 μg/ml) to each well, the petri dishes were incubated at 28 °C for 72 h. The diameter of the standard reference antifungal was compared to the millimeters measurements of the inhibitory zones. The formula according to [22] was utilized to compute the activity index (AI).1 [drawing 1]

[1] = system: P. chrysogenum ATCC 10106; assay: Well-diffusion antifungal activity; format: cell-based, Penicillium chrysogenum; conditions: 1000 µg/ml; for zone of inhibition at 1000 µg/mL: Penicillium chrysogenum, ATCC10106, 72 h, 28 °C, read-out: IZD
Description: as §1

A. niger ATCC 11414 [2] = assay: Well-diffusion antifungal activity; format: cell-based, Aspergillus niger; conditions: 1000 µg/ml, 72 h, 28 °C; for zone of inhibition at 1000 µg/mL: Aspergillus niger, ATCC11414, read-out: IZD
Description: This study investigated strains of four distinct fungal pathogens: Aspergillus flavus ATCC 9643, A. niger ATCC 11414, Rhizopus oryzae ATCC 96382, and Penicillium chrysogenum ATCC 10106. Every strain was acquired from the Dep. of Micro. Fac. Agric., […] Uni., in Egypt. Initially kept and preserved in malt agar medium at 4 °C, the pathogens were then grown overnight at 28 °C in malt broth medium to evaluate the antifungal activity. Fungal pathogen standard inoculum was prepared by following the procedure described by [19, 20]. To assess the antifungal activity, the pathogens were first maintained and stored at 4 °C in malt agar medium. They were then cultured in malt broth medium for a whole night at 28 °C. According to [22], the well-diffusion technique was used to test the antifungal activity. This included using a 9.0 mm cork borer that had been sterilized to create wells in the malt agar layer. […] After adding 1000 μg/ml of control pyrazole compounds and the standard antifungal (Fluconazole 1000 μg/ml) to each well, the petri dishes were incubated at 28 °C for 72 h. The diameter of the standard reference antifungal was compared to the millimeters measurements of the inhibitory zones. The formula according to [22] was utilized to compute the activity index (AI).1 [drawing 1]

A. flavus ATCC 9643 [3] = assay: Well-diffusion antifungal activity; format: cell-based, Aspergillus flavus; conditions: 1000 µg/ml; for zone of inhibition at 1000 µg/mL: Aspergillus flavus, ATCC9643, read-out: IZD
Description: as §1

A. fumigatus = system: A. fumigatus; parameters: method as in PMID 31926784; conditions: cited from earlier work
[4] = system: A. niger ATCC 11414 and A. flavus ATCC 9643; assay: Activity spectrum in MFIC/MLFC tests (share of strains inhibited); format: cell-based, Aspergillus niger, Aspergillus flavus
Description: (§2) In diagnostic laboratories, minimum inhibitory concentrations (MICs) are essential for confirming fungal resistance to an antifungal drug and monitoring the effectiveness of new antifungal medicines. MICs were computed in accordance with the recommendations established by the National Committee for Clinical Laboratory Standards (CLS). In dimethyl sulfoxide (DMSO), pyrazoles were serially diluted twice (1/2, 1/4, and 1/8) and heated at 70 °C for 10 min to get final concentrations of 1000–125 μg/ml, respectively. After that, these dilutions were put into wells that had already been created on plates with fungal infestations. Using a calibrated micropipette, fungus spore suspensions were prepared and added to malt agar welled plates then incubated for 72 h at 28 °C.
(§3) The term “minimal lethal fungal concentration” (MLFC) refers to the lowest concentration of an antifungal drug that may […]. The fungus was initially subjected to different concentrations of the pyrazole compounds in order to ascertain this concentration. After that, the growth from the MIFC stage was moved to regular malt agar plates. After that, these plates are incubated for 72 h at 28 °C. After then, any growth—or lack thereof—is noted and studied.

A. niger ATCC 11414 [5] = assay: Minimal fungal inhibitory concentration (MFIC); format: cell-based, Aspergillus niger; parameters: key to Growth in MFIC test: -: No detected growth; +: Growth observed; conditions: 72 h, 28 °C
Description: as §2

A. flavus ATCC 9643 [6] = assay: Minimal fungal inhibitory concentration (MFIC); format: cell-based, Aspergillus flavus; parameters: key to Growth in MFIC test: -: No detected growth; +: Growth observed; conditions: 72 h, 28 °C
Description: as §2

A. flavus ATCC 9643 [7] = assay: Minimal lethal fungal concentration (MLFC); format: cell-based, Aspergillus flavus; parameters: key to Growth in MLFC test: -: No detected growth; +: Growth observed
Description: as §3
(§4) Following the acquisition of the MFIC and MLFC records, the ratio was computed. The fungicidal activity of a pyrazole compound is defined as a ratio […].

[8] = Biocompatibility, MTT assay; format: cell-based, human; conditions: human, HFB4 normal human skin cells
Description: (§5) A complete monolayer sheet was created by incubating the 96-well tissue culture plate at 37 °C for 24 h following inoculation with 1 × 10^5 cells/ml (100 µl/well), following the procedure described by. Following the establishment of a confluent sheet of cells, the growth material was collected from the 96-well micro titer plates, and the cell monolayer underwent two washing media washes. […] They then evaluated 0.1 ml of each dilution in several wells. We looked at the cells for physical signs of toxicity, including granulation, rounding, shrinkage, and partial or complete loss of the monolayer. Following the phosphate buffer solution’s preparation, each well received 20 µl of a 5 mg/ml MTT (3-(4,5-dimethylthiazol-2-yl-)-2,5 diphenyltetrazolium bromide) solution from Bio Basic Canada Inc. After that, place it on a shaking table and shake it for five minutes at 150 rpm to completely integrate the MTT. to allow MTT to metabolize, followed by incubation for 4 h at 37 °C with 5% CO2. Media was taken out if necessary, and paper towels were used to wipe out any remaining material from the plate. One may re-dissolve formazan, a metabolic product of MTT, in 200 µL of DMSO. Put on a shaking table and shaken for five minutes at 150 rpm to fully mix the formazan and solvent. At 560 nm, optical density was measured, and at 620 nm, background was subtracted. There should be a direct relationship between optical density and cell number.3 [drawing 3]

[9] = system: HFB4 normal human skin cell line; assay: Biocompatibility, MTT assay; format: cell-based
Description: as §5

A. niger ATCC 11414 [10] = assay: Minimal lethal fungal concentration (MLFC); format: cell-based, Aspergillus niger; parameters: key to Growth in MLFC test: -: No detected growth; +: Growth observed
Description: as §3, §4

[11] = relative to Fluconazole 1000 µg/ml

O=C1c2c(Br)c(Br)c(Br)c(Br)c2C(=O)N1N=Cc1cn(-c2ccccc2)nc1-c1ccccc1 [compound 6, 4,5,6,7-tetrabromo-2-(((1,3-diphenyl-1H-pyrazol-4-yl)methylene)amino)isoindoline-1,3-dione]
minimum inhibitory concentration (A. niger): 250 µg/mL (≈ 353 µM)
minimum inhibitory concentration (A. flavus): 250 µg/mL (≈ 353 µM)
zone of inhibition at 1000 µg/mL (R. oryzae ATCC 96382): 0 mm
zone of inhibition at 1000 µg/mL [1]: 0 mm
zone of inhibition at 1000 µg/mL (A. niger ATCC 11414 [2]): 0 mm
zone of inhibition at 1000 µg/mL (A. flavus ATCC 9643 [3]; 72 h, 28 °C): 0 mm
minimum inhibitory concentration (A. fumigatus): 250 µg/mL (≈ 353 µM)

COc1ccc(NC(=O)/C(C#N)=C/c2cn(-c3ccccc3)nc2-c2ccccc2)cc1 [3b]
Activity spectrum (MLFC) ([4]; 125 µg/ml): 0/2 (0%)
Activity spectrum (MLFC) ([4]; 250 µg/ml): 0/2 (0%)
Activity spectrum (MLFC) ([4]; 500 µg/ml): 2/2 (100%)
Activity spectrum (MLFC) ([4]; 1000 µg/ml): 2/2 (100%)
Growth in MFIC test (A. niger ATCC 11414 [5]; 125 µg/ml): +
Growth in MFIC test (A. niger ATCC 11414 [5]; 250 µg/ml): -
Growth in MFIC test (A. niger ATCC 11414 [5]; 500 µg/ml): -
Growth in MFIC test (A. niger ATCC 11414 [5]; 1000 µg/ml): -
Dose of MFIC (A. niger ATCC 11414 [5]): 250 µg/mL
Growth in MFIC test (A. flavus ATCC 9643 [6]; 125 µg/ml): +
Growth in MFIC test (A. flavus ATCC 9643 [6]; 250 µg/ml): -
Growth in MFIC test (A. flavus ATCC 9643 [6]; 500 µg/ml): -
Growth in MFIC test (A. flavus ATCC 9643 [6]; 1000 µg/ml): -
Dose of MFIC (A. flavus ATCC 9643 [6]): 250 µg/mL
zone of inhibition at 1000 µg/mL (R. oryzae ATCC 96382): 0 mm
Antifungal effect (ratio of MLFC and MFIC) (A. flavus ATCC 9643 [7]): 2
Growth in MLFC test (A. flavus ATCC 9643 [7]; 125 µg/ml, 72 h, 28 °C): +
Growth in MLFC test (A. flavus ATCC 9643 [7]; 250 µg/ml, 72 h, 28 °C): +
Growth in MLFC test (A. flavus ATCC 9643 [7]; 500 µg/ml, 72 h, 28 °C): -
Growth in MLFC test (A. flavus ATCC 9643 [7]; 1000 µg/ml, 72 h, 28 °C): -
Dose of MLFC (A. flavus ATCC 9643 [7]; 72 h, 28 °C): 500 µg/mL
viability at 31.25 µg/ml ([8]; 31.25 µg/ml): 99.9%
viability at 62.5 µg/ml ([8]; 62.5 µg/ml): 99.8%
viability at 125 µg/ml ([8]; 125 µg/ml): 99.9%
viability at 250 µg/ml ([8]; 250 µg/ml): 99.8%
viability at 500 µg/ml ([8]; 500 µg/ml): 99.6%
viability at 1000 µg/ml ([8]; 1000 µg/ml): 99.2%
Toxicity % ([9]; 31.25 µg/ml): 0.177%
Toxicity % ([9]; 62.5 µg/ml): 0.118%
Toxicity % ([9]; 125 µg/ml): 0.118%
Toxicity % ([9]; 250 µg/ml): 0.236%
Toxicity % ([9]; 500 µg/ml): 0.354%
Toxicity % ([9]; 1000 µg/ml): 0.767%
Changes of HFB4 cells ([9]; concentrations 31.25–1000 µg/ml): no significant changes
IC50 (cytotoxicity) ([9]; tested up to 1000 µg/ml): no IC50 dose obtained; also recorded: no IC50 dose was determined
AI (activity index) [1, 11]: 0.87
zone of inhibition at 1000 µg/mL [1]: 20 ± 0.11 mm
IZD (A. niger ATCC 11414 [2]): 32 ± 0.14^a mm
zone of inhibition at 1000 µg/mL (A. niger ATCC 11414 [2]): 32 mm
IZD (A. flavus ATCC 9643 [3]; 72 h, 28 °C): 30 ± 0.13^b mm
AI (activity index) (A. flavus ATCC 9643 [3]; [11]): 1.0
zone of inhibition at 1000 µg/mL (A. flavus ATCC 9643 [3]; 72 h, 28 °C): 30 mm
Antifungal effect (ratio of MLFC and MFIC) (A. niger ATCC 11414 [10]): 2
Growth in MLFC test (A. niger ATCC 11414 [10]; 125 µg/ml, 72 h, 28 °C): +
Growth in MLFC test (A. niger ATCC 11414 [10]; 250 µg/ml, 72 h, 28 °C): +
Growth in MLFC test (A. niger ATCC 11414 [10]; 500 µg/ml, 72 h, 28 °C): -
Growth in MLFC test (A. niger ATCC 11414 [10]; 1000 µg/ml, 72 h, 28 °C): -
Dose of MLFC (A. niger ATCC 11414 [10]; 72 h, 28 °C): 500 µg/mL
